# Laboratory results: ChEMBL document CHEMBL4813914, “Tackling Antimicrobial Resistance with Small Molecules Targeting LsrK: Challenges and Opportunities” (J Med Chem, 2020)
# Assays:
# [1] = Inhibition of Salmonella typhimurium LsrK expressed in Escherichia coli MET1158 in presence of DPD by kinase-glo max luminescent assay; set-up: species or system Salmonella enterica subsp. enterica serovar Typhimurium
# [2] = Inhibition of Salmonella typhimurium LsrK expressed in Escherichia coli MET1158 incubated for 30 mins followed by DPD and ATP addition and measured after 15 mins by kinase-glo max luminescent assay; set-up: species or system Salmonella enterica subsp. enterica serovar Typhimurium
# [3] = Inhibition of LsrK expressed in Escherichia coli JW5503 harboring plasmid pET-Plsrlux assessed as reduction in autoinducer2-mediated quorum sensing activation by luminescence method
# [4] = Inhibition of LsrK expressed in Escherichia coli LW7 pLW11 harboring assessed as reduction in autoinducer2-mediated quorum sensing by measuring beta-galactosidase expression by luminescence method
Structure (SMILES),IC50 [1] [µM],IC50 [3] [µM],other results
O=C(O)C1=CC(=C(c2ccc(O)c(C(=O)O)c2)c2ccc(O)c(C(=O)O)c2)C=CC1=O [AURINTRICARBOXYLIC ACID],,,IC50 [2]: 1 µM
O=C1C=CC(=C(c2ccc(O)cc2)c2ccc(O)cc2)C=C1 [AURIN],,,IC50 [4]: 14 µM; IC50 [2]: 1 µM
O=C(O)c1ccc(Cl)cc1Nc1ccccc1,30,,
Cc1ccc(Cl)c(Nc2ccccc2C(=O)O)c1Cl [MECLOFENAMIC ACID],178,,
O=C(O)c1ccc(O)c2ncccc12,292,,
CC1=C(O)C(=O)C=C2C1=CC=C1[C@@]2(C)CC[C@@]2(C)[C@@H]3C[C@](C)(C(=O)O)CC[C@]3(C)CC[C@]12C [CELASTROL],,,IC50 [2]: 3 µM
COc1cc(C)c2c(c1C=O)Oc1c(c(C)c(O)c3c1C(O)OC3=O)OC2=O (stereo not given) [STICTIC ACID],,,IC50 [2]: 3 µM
O=C(O)C(=O)N[C@H]1CCc2nc(NC(=O)c3cc(Br)c(Br)[nH]3)sc2C1,147,2,
COc1ccc(Nc2cc(C(F)(F)F)ccc2Cl)c(C(=O)O)c1,67,,
O=C(O)C(=O)Nc1nc2ccc(NC(=O)c3cc(Br)c(Br)[nH]3)cc2s1,18,0.6,
O=C(O)c1ccccc1Nc1ccc(Cl)cc1,141,,

# The next lines start with results.
IC50 [1] [µM],IC50 [3] [µM],Structure (SMILES),other results
70,,Cc1c(Cl)cccc1Nc1ccccc1C(=O)O [TOLFENAMIC ACID],
29,1,Cc1[nH]c(C(=O)N(Cc2ccccc2)c2nc3ccc(NC(=O)C(=O)O)cc3s2)c(Cl)c1Cl,
15,0.4,O=C(O)CC(=O)Nc1ccc2nc(N(Cc3ccccc3)C(=O)c3cc(Br)c(Br)[nH]3)sc2c1,
18,10,O=C(O)C(=O)Nc1ccc2nc(N(Cc3ccccc3)C(=O)c3cc(Br)c(Br)[nH]3)sc2c1,
78,17,O=C(Nc1ccc(C2=N[C@@H](C(=O)O)CO2)cc1)c1cc(Br)c(Br)[nH]1,
119,,O=C(O)c1ccccc1Nc1cccc(Cl)c1,
12,,O=C(O)c1c(Cl)c(Cl)c(Cl)c(Cl)c1Nc1cc(Cl)c(Cl)c(Cl)c1Cl,
